Test results reported in patent US7612065B2, “Inhibitors of c-JUN N-terminal kinases (JNK)” (priority 2007, dated 2009).
pKi: −log10 of the molar value.

These compounds were tested against T1, JNK3 (Homo sapiens, UniProt P53779) (assay: JNK inhibition assay: spectrophotometric coupled-enzyme assay with activated JNK3). Details: activated JNK3 10 nM, 10 μM ATP, 200 μM EGF receptor peptide, 30° C., competitive inhibition model.
T1 construct: One such construct encodes amino acid residues Ser40-Glu402 of JNK3α1 and is preceded by Met and Gly residues; Met-Gly (initiation methionine plus glycine added for the NcoI site); made in house; host or cells: E. coli BL21 (DE3)
T1 sequence (P53779 40-402): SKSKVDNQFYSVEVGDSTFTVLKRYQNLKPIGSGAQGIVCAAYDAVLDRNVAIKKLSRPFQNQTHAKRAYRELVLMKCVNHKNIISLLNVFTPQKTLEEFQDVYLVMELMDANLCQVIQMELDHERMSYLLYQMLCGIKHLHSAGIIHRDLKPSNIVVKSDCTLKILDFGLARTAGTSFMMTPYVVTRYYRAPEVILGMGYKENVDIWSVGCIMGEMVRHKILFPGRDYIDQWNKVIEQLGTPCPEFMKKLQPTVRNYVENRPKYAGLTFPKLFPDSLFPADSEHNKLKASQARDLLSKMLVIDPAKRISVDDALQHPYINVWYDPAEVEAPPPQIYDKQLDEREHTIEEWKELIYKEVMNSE
Format: biochemical
In short: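 Activated (doubly phosphorylated, MKK7(DD)-activated) human JNK3, 10 nM, preincubated 10 min at 30 °C with inhibitor in 0.1 M HEPES pH 7.5, 10 mM MgCl2, 200 μM EGF receptor peptide, PK/LDH-coupled. Started with 10 μM ATP; A340 decrease followed at 30 °C. Ki from competitive inhibition model fit.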

Row | pKi | SMILES
1 | > 6.00 | O=C1/C(=N\O)c2cc(Br)ccc2N1Cc1cc(F)cc2c1OCOC2 [Compound 278]
2 | ≤ 6.00 | CC(=O)Nc1cccc(-c2ccc3c(c2)/C(=N/O)C(=O)N3Cc2cc(F)cc3c2OCOC3)c1 [Compound 279]
3 | ≤ 6.00 | Nc1cccc(-c2ccc3c(c2)/C(=N/O)C(=O)N3Cc2cc(F)cc3c2OCOC3)c1 [Compound 280]
4 | ≤ 6.00 | O=C1/C(=N\O)c2cc(-c3cccnc3)ccc2N1Cc1cc(F)cc2c1OCOC2 [Compound 281]
5 | ≤ 6.00 | O=C1/C(=N\O)c2cc(-c3ccc(CO)cc3)ccc2N1Cc1cc(F)cc2c1OCOC2 [Compound 283]
6 | ≤ 6.00 | O=C1/C(=N\O)c2cc([N+](=O)[O-])ccc2N1Cc1cc(F)cc2c1OCOC2 [Compound 284]
7 | ≤ 6.00 | Nc1ccc2c(c1)/C(=N/O)C(=O)N2Cc1cc(F)cc2c1OCOC2 [Compound 285]
8 | ≤ 6.00 | CC(C)CNC(=O)c1ccc2c(c1)N(Cc1cc(F)cc3c1OCOC3)C(=O)/C2=N\O [Compound 287]
9 | ≤ 6.00 | CCNC(=O)c1ccc2c(c1)N(Cc1cc(F)cc3c1OCOC3)C(=O)/C2=N\O [Compound 291]
10 | ≤ 6.00 | CCCNC(=O)c1ccc2c(c1)N(Cc1cc(F)cc3c1OCOC3)C(=O)/C2=N\O [Compound 293]
11 | ≤ 6.00 | O=C1/C(=N\O)c2cc(NCc3ccccc3)ccc2N1Cc1cc(F)cc2c1OCOC2 [Compound 300]
12 | ≤ 6.00 | O=C(c1ccccc1)c1ccc2c(c1)/C(=N/O)C(=O)N2Cc1cc(F)cc2c1OCOC2 [Compound 302]
13 | ≤ 6.00 | O=C(O)c1ccc(CNc2ccc3c(c2)/C(=N/O)C(=O)N3Cc2cc(F)cc3c2OCOC3)cc1 [Compound 303]
14 | ≤ 6.00 | O=C1/C(=N\O)c2cc(NCc3ccc(O)cc3)ccc2N1Cc1cc(F)cc2c1OCOC2 [Compound 304]
15 | ≤ 6.00 | COc1ccc(CNc2ccc3c(c2)/C(=N/O)C(=O)N3Cc2cc(F)cc3c2OCOC3)cc1O [Compound 305]
16 | ≤ 6.00 | CC(C)CNc1ccc2c(c1)/C(=N/O)C(=O)N2Cc1cc(F)cc2c1OCOC2 [Compound 311]
17 | > 6.00 | O=C1/C(=N\O)c2ccc(-c3ccc(F)cc3F)cc2N1Cc1cc(F)cc2c1OCOC2 [Compound 313]
18 | > 6.00 | O=Cc1ccccc1-c1ccc2c(c1)N(Cc1cc(F)cc3c1OCOC3)C(=O)/C2=N\O [Compound 315]

Row | pKi | SMILES
19 | > 6.00 | Cc1ccccc1-c1ccc2c(c1)N(Cc1cc(F)cc3c1OCOC3)C(=O)/C2=N\O [Compound 316]
20 | > 6.00 | CC(=O)Nc1cccc(-c2ccc3c(c2)N(Cc2cc(F)cc4c2OCOC4)C(=O)/C3=N\O)c1 [Compound 317]
21 | > 6.00 | Cc1cc(F)ccc1C(=O)c1ccc2c(c1)/C(=N/O)C(=O)N2Cc1cc(F)cc2c1OCOC2 [Compound 319]
22 | > 6.00 | Nc1cccc(-c2ccc3c(c2)N(Cc2cc(F)cc4c2OCOC4)C(=O)/C3=N\O)c1 [Compound 327]
23 | ≤ 6.00 | O=C(c1ccc(F)cc1)c1ccc2c(c1)/C(=N/O)C(=O)N2Cc1cc(F)cc2c1OCOC2 [Compound 328]
24 | ≤ 6.00 | COc1ccc(-c2ccc3c(c2)N(Cc2cc(F)cc4c2OCOC4)C(=O)/C3=N\O)cc1 [Compound 329]
25 | > 6.00 | CC(=O)c1ccc(-c2ccc3c(c2)N(Cc2cc(F)cc4c2OCOC4)C(=O)/C3=N\O)cc1 [Compound 330]
26 | > 6.00 | Cc1ccc(-c2ccc3c(c2)N(Cc2cc(F)cc4c2OCOC4)C(=O)/C3=N\O)cc1C [Compound 331]
27 | > 6.00 | COc1ccc(-c2ccc3c(c2)N(Cc2cc(F)cc4c2OCOC4)C(=O)/C3=N\O)cc1OC [Compound 332]
28 | ≤ 6.00 | Cc1ccc(-c2ccc3c(c2)N(Cc2cc(F)cc4c2OCOC4)C(=O)/C3=N\O)cc1 [Compound 333]
29 | ≤ 6.00 | COc1ccc(C(=O)Nc2ccc3c(c2)N(Cc2cc(F)cc4c2OCOC4)C(=O)/C3=N\O)cc1 [Compound 338]
30 | ≤ 6.00 | COc1ccc(C(=O)Nc2ccc3c(c2)N(Cc2cc(F)cc4c2OCOC4)C(=O)/C3=N\O)cc1OC [Compound 339]
31 | ≤ 6.00 | COc1cccc(OC)c1C(=O)Nc1ccc2c(c1)N(Cc1cc(F)cc3c1OCOC3)C(=O)/C2=N\O [Compound 340]
32 | > 6.00 | O=C(Nc1ccc2c(c1)N(Cc1cc(F)cc3c1OCOC3)C(=O)/C2=N\O)c1ccccc1F [Compound 341]
33 | > 6.00 | O=C(Nc1ccc2c(c1)N(Cc1cc(F)cc3c1OCOC3)C(=O)/C2=N\O)c1ccccc1Cl [Compound 342]
34 | > 6.00 | O=C(Nc1ccc2c(c1)N(Cc1cc(F)cc3c1OCOC3)C(=O)/C2=N\O)c1ccccc1Br [Compound 343]
35 | ≤ 6.00 | Cc1ccc(C(=O)c2ccc3c(c2)/C(=N/O)C(=O)N3Cc2cc(F)cc3c2OCOC3)cc1 [Compound 349]
36 | ≤ 6.00 | Cc1cc2c(cc1C(=O)c1ccccc1)/C(=N/O)C(=O)N2Cc1cc(F)cc2c1OCOC2 [Compound 351]

Continued, compound first:

Row | SMILES | pKi
37 | O=C(Nc1ccc2c(c1)N(Cc1cc(F)cc3c1OCOC3)C(=O)/C2=N\O)N1CCOCC1 [Compound 269] | > 6.00
38 | Nc1cccc2c1/C(=N/O)C(=O)N2Cc1cc(F)cc2c1OCOC2 [Compound 282] | ≤ 6.00
39 | O=C1/C(=N\O)c2c(F)cc(F)cc2N1Cc1cc(F)cc2c1OCOC2 [Compound 286] | > 6.00
40 | COC(=O)CNC(=O)c1ccc2c(c1)N(Cc1cc(F)cc3c1OCOC3)C(=O)/C2=N\O [Compound 288] | ≤ 6.00
41 | O=C(NCCN1CCCC1)c1ccc2c(c1)N(Cc1cc(F)cc3c1OCOC3)C(=O)/C2=N\O [Compound 289] | ≤ 6.00
42 | O=C(NCC1CCCO1)c1ccc2c(c1)N(Cc1cc(F)cc3c1OCOC3)C(=O)/C2=N\O (centres unmarked) [Compound 290] | ≤ 6.00
43 | O=C(NCCc1c[nH]cn1)c1ccc2c(c1)N(Cc1cc(F)cc3c1OCOC3)C(=O)/C2=N\O [Compound 292] | ≤ 6.00
44 | CC(C)CCNC(=O)c1ccc2c(c1)N(Cc1cc(F)cc3c1OCOC3)C(=O)/C2=N\O [Compound 294] | ≤ 6.00
45 | CN(C)CCNC(=O)c1ccc2c(c1)N(Cc1cc(F)cc3c1OCOC3)C(=O)/C2=N\O [Compound 295] | ≤ 6.00
46 | CCOC(=O)CCNC(=O)c1ccc2c(c1)N(Cc1cc(F)cc3c1OCOC3)C(=O)/C2=N\O [Compound 296] | ≤ 6.00
47 | CN1CCCC1CCNC(=O)c1ccc2c(c1)N(Cc1cc(F)cc3c1OCOC3)C(=O)/C2=N\O (centres unmarked) [Compound 297] | ≤ 6.00
48 | O=C(NCCN1CCCCC1)c1ccc2c(c1)N(Cc1cc(F)cc3c1OCOC3)C(=O)/C2=N\O [Compound 298] | ≤ 6.00
49 | C[Si](C)(C)C#Cc1cccc2c1/C(=N/O)C(=O)N2Cc1cc(F)cc2c1OCOC2 [Compound 299] | ≤ 6.00
50 | Cc1cccc2c1/C(=N/O)C(=O)N2Cc1cc(F)cc2c1OCOC2 [Compound 301] | > 6.00
51 | O=C1/C(=N\O)c2c(CCc3ccccc3)cccc2N1Cc1cc(F)cc2c1OCOC2 [Compound 306] | ≤ 6.00
52 | C=Cc1cccc2c1/C(=N/O)C(=O)N2Cc1cc(F)cc2c1OCOC2 [Compound 307] | > 6.00
53 | CC(C)CCN(CCC(C)C)c1ccc2c(c1)/C(=N/O)C(=O)N2Cc1cc(F)cc2c1OCOC2 [Compound 308] | ≤ 6.00
54 | O=C(O)CCCN(CCCC(=O)O)c1ccc2c(c1)/C(=N/O)C(=O)N2Cc1cc(F)cc2c1OCOC2 [Compound 309] | ≤ 6.00
55 | O=C1/C(=N\O)c2cc(N(CC3CCCCC3)CC3CCCCC3)ccc2N1Cc1cc(F)cc2c1OCOC2 [Compound 310] | ≤ 6.00

Row | SMILES | pKi
56 | O=C1/C(=N\O)c2cc(N(CCCc3ccccc3)CCCc3ccccc3)ccc2N1Cc1cc(F)cc2c1OCOC2 [Compound 312] | ≤ 6.00
57 | O=C1/C(=N\O)c2ccc(-c3ccccc3C(F)(F)F)cc2N1Cc1cc(F)cc2c1OCOC2 [Compound 314] | ≤ 6.00
58 | O=C1/C(=N\O)c2ccc(-c3cc4ccccc4o3)cc2N1Cc1cc(F)cc2c1OCOC2 [Compound 318] | > 6.00
59 | O=C(Nc1ccc2c(c1)N(Cc1cc(F)cc3c1OCOC3)C(=O)/C2=N/O)c1cccc(Oc2ccccc2)c1 [Compound 320] | ≤ 6.00
60 | COc1ccc(C(=O)Nc2ccc3c(c2)N(Cc2cc(F)cc4c2OCOC4)C(=O)/C3=N/O)cc1OCc1ccccc1 [Compound 321] | > 6.00
61 | CC(=O)OC(C(=O)Nc1ccc2c(c1)N(Cc1cc(F)cc3c1OCOC3)C(=O)/C2=N/O)c1ccccc1 (centres unmarked) [Compound 322] | ≤ 6.00
62 | CCC(C(=O)Nc1ccc2c(c1)N(Cc1cc(F)cc3c1OCOC3)C(=O)/C2=N/O)c1ccccc1 (centres unmarked) [Compound 323] | > 6.00
63 | COc1ccc(CC(=O)Nc2ccc3c(c2)N(Cc2cc(F)cc4c2OCOC4)C(=O)/C3=N/O)cc1OC [Compound 324] | ≤ 6.00
64 | CCc1cccc2c1/C(=N/O)C(=O)N2Cc1cc(F)cc2c1OCOC2 [Compound 325] | ≤ 6.00
65 | C/C=C/c1cccc2c1/C(=N/O)C(=O)N2Cc1cc(F)cc2c1OCOC2 [Compound 326] | > 6.00
66 | CC(C)c1ccc(-c2ccc3c(c2)N(Cc2cc(F)cc4c2OCOC4)C(=O)/C3=N\O)cc1 [Compound 334] | ≤ 6.00
67 | O=C(O)CCc1ccc(-c2ccc3c(c2)N(Cc2cc(F)cc4c2OCOC4)C(=O)/C3=N\O)cc1 [Compound 335] | > 6.00
68 | CC(C)=Cc1cccc2c1/C(=N/O)C(=O)N2Cc1cc(F)cc2c1OCOC2 [Compound 336] | > 6.00
69 | CCCCc1cccc2c1/C(=N/O)C(=O)N2Cc1cc(F)cc2c1OCOC2 [Compound 337] | > 6.00
70 | CCC(=O)Nc1ccc2c(c1)N(Cc1cc(F)cc3c1OCOC3)C(=O)/C2=N\O [Compound 344] | > 6.00
71 | CC(C)CC(=O)Nc1ccc2c(c1)N(Cc1cc(F)cc3c1OCOC3)C(=O)/C2=N\O [Compound 345] | > 6.00
72 | O=C(Nc1ccc2c(c1)N(Cc1cc(F)cc3c1OCOC3)C(=O)/C2=N\O)C1CCCCC1 [Compound 346] | ≤ 6.00
73 | CC(=O)NCC(=O)NCC(=O)Nc1ccc2c(c1)N(Cc1cc(F)cc3c1OCOC3)C(=O)/C2=N\O [Compound 347] | ≤ 6.00
74 | CC(=O)NCC(=O)Nc1ccc2c(c1)N(Cc1cc(F)cc3c1OCOC3)C(=O)/C2=N\O [Compound 348] | ≤ 6.00
